The data set can be described thus: Pharmacokinetics in plasma of rats after oral and intravenous dosing; oral bioavailability. The class given is in vivo, Sprague Dawley rats. As to the method: The pharmacokinetics of disclosed compounds were determined in the plasma of rats after oral and intravenous dosing, with the results presented in Table 13.
Animals. Male Sprague Dawley rats were used in these studies. Animals were randomly assigned to treatment groups and were fasted overnight before oral dosing.
Drugs. The test compound was dissolved in 10% captisol (1) or 10% DMSO and 90% normal saline (2a) and administered intravenously (iv) at 2 mg/kg (1) or 1 mg/kg (2a) or orally (po) at 10 mg/kg (1) or 1 mg/kg (2a), calculated based on freebase, and at a volume of 10 mL/kg body weight for oral administration and 5 mL/kg for IV administration. The compounds were tested as the racemates.
Sample Collection and Bioanalysis. Blood samples were collected through the external jugular vein (via cannulation) at 0.083, 0.25, 0.5, 1, 2, 4, 8, and 24 h post-dose (total 8 time points/rat, 4 rats per administration route). At each time point, ~0.2 mL of blood was withdrawn and transferred into a pre-labeled 0.5-mL micro centrifuge tube containing 4 μL of 200 mM K2EDTA solution as anticoagulant and mixed gently by inverting the tube to facilitate mixing of anticoagulant with the blood. Blood samples were kept on ice until centrifugation. The collected blood samples were centrifuged at 4,000 rpm for 10 min at 4° C. Plasma samples were separated after centrifugation, transferred into pre-labeled tubes, and stored at −70° C. until bioanalysis. For bioanalysis, a 200-μL aliquot of internal standard prepared in acetonitrile (cetirizine, 50 ng/mL) was added (except for blank, where 200 μL of acetonitrile was added) to a 96-well Solvinert filter plate followed by 5 μL of a study plasma sample or spiked calibration standard. The filter plate was then centrifuged for 5 minutes at a speed of 2,500 rpm at 4° C. with a 96-well sample collection plate. Following centrifugation, collected samples were analyzed using a fit-for-purpose LC-MS/MS method, with authentic samples of the analyte used for calibration and identification.
Data Analysis. Pharmacokinetic parameters were estimated using the non-compartmental analysis tool of Phoenix® WinNonlin software (Ver 8.1). The drug concentrations of samples below the lower limit of quantitation (LLOQ) were designated as zero.

Read-outs that look alike come from different tables or passages of the source.

Usually bioavailability stands for the share of a dose that reaches the circulation, judged against a reference dose that is usually intravenous. As a reminder, the Cmax is the maximum level reached in the sampled fluid or tissue. Molecule `CCC(N)Cc1cc(OC)c(CCCCCC(F)(F)F)cc1OC` (racemic) [Compound 2a, 1-(2,5-dimethoxy-4-(6,6,6-trifluorohexyl)phenyl)butan-2-amine] came in with a C0 (rat plasma, IV 1 mg/kg, racemate, 10% DMSO and 90% normal saline) of 75.9 ng/mL. For the same molecule, the AUC(0-t) (rat plasma, IV 1 mg/kg, racemate, 10% DMSO and 90% normal saline, read-out: AUC0-last (iv)) came out at 90 ng·h/mL; the AUC(0-t) (rat plasma, PO 1 mg/kg, racemate, 10% DMSO and 90% normal saline, fasted, read-out: AUC0-last (po)) turned out to be 25 ng·h/mL. Besides, the half-life was 2.71 h (rat plasma, IV 1 mg/kg, racemate, 10% DMSO and 90% normal saline, read-out: t1/2 (iv) (converted)); 3.07 h (rat plasma, PO 1 mg/kg, racemate, 10% DMSO and 90% normal saline, fasted, read-out: t1/2 (po) (converted)). In addition, the bioavailability (rat plasma, IV and PO 1 mg/kg, racemate, 10% DMSO and 90% normal saline, read-out: F (absolute oral bioavailability)) was found to be 28%. The Cmax (rat plasma, PO 1 mg/kg, racemate, 10% DMSO and 90% normal saline, fasted) was found to be 29.7 ng/mL. In addition, the “absolute oral bioavailability (F) (in words)” value (rats, 2a 1 mg/kg iv and 1 mg/kg po, 1 2 mg/kg iv and 10 mg/kg po, racemates) was “improved absolute oral bioavailability (F), compared to 1”.

Source of the values: patent US20260347310A1, “PHENALKYLAMINES AND METHODS OF MAKING AND USING THE SAME” (GILGAMESH PHARMACEUTICALS, INC., priority 2022, published 2026).
